Source: ChEMBL document CHEMBL1201862, “PubChem BioAssay data set” (2004)
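Protocol summary: plate cells (96-well), add compound at 5 concentrations, incubate 48 h, interpolate endpoints linearly. GI50: concentration for 50% inhibition of growth.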 The source made the active and inactive calls. No stated cut-off is given here; in the data, active = GI50 up to about 1.1 µM and inactive = higher.

Legend:
Test in all cases: DTP human tumour cell line panel, 48 h
SF-295 = tested on: SF-295
OVCAR-8 = tested on: OVCAR-8
NCI-H23 = tested on: NCI-H23
T47D = tested on: T47D
UACC-257 = tested on: UACC-257
MDA-MB-231 = tested on: MDA-MB-231
DU-145 = tested on: DU-145
MCF7 = tested on: MCF7
OVCAR-4 = tested on: OVCAR-4
MOLT-4 = tested on: MOLT-4
A498 = tested on: A498
SK-MEL-28 = tested on: SK-MEL-28
SK-MEL-2 = tested on: SK-MEL-2
Malme-3M = tested on: Malme-3M
HCT-15 = tested on: HCT-15
EKVX = tested on: EKVX
MDA-MB-435 = tested on: MDA-MB-435
K562 = tested on: K562
786-0 = tested on: 786-0
HOP-92 = tested on: HOP-92
UACC-62 = tested on: UACC-62
RXF 393 = tested on: RXF 393
KM12 = tested on: KM12
SK-MEL-5 = tested on: SK-MEL-5
A549 = tested on: A549
OVCAR-3 = tested on: OVCAR-3
MDA-N = tested on: MDA-N
NCI-H226 = tested on: NCI-H226
SK-OV-3 = tested on: SK-OV-3
PC-3 = tested on: PC-3
CCRF-CEM = tested on: CCRF-CEM
COLO 205 = tested on: COLO 205
HOP-62 = tested on: HOP-62
HL-60 = tested on: HL-60
ACHN = tested on: ACHN
U-251 = tested on: U-251
RPMI-8226 = tested on: RPMI-8226
NCI-H522 = tested on: NCI-H522
SW-620 = tested on: SW-620
SF-268 = tested on: SF-268
TK-10 = tested on: TK-10
IGROV-1 = tested on: IGROV-1
LOX IMVI = tested on: LOX IMVI
NCI/ADR-RES = tested on: NCI/ADR-RES
Hs-578T = tested on: Hs-578T
SNB-19 = tested on: SNB-19
M14 = tested on: M14
CAKI-1 = tested on: CAKI-1
HT-29 = tested on: HT-29
SN12C = tested on: SN12C
HCT-116 = tested on: HCT-116
SF-539 = tested on: SF-539
NCI-H460 = tested on: NCI-H460
OVCAR-5 = tested on: OVCAR-5
UO-31 = tested on: UO-31
HCC 2998 = tested on: HCC 2998
BT-549 = tested on: BT-549
SR = tested on: SR
SNB-75 = tested on: SNB-75

## COc1cccc2c1[C@H](OC)[C@]13O[C@@]1(C2=O)[C@H](O)[C@H](C)[C@@](O)(C(=O)[C@@H]1O[C@H]1C)[C@@H]3O
SF-295
  GI50: 0.218 µM (active)
OVCAR-8
  GI50: 0.217 µM (active)
NCI-H23
  GI50: 0.196 µM (active)
T47D
  GI50: 0.313 µM (active)
UACC-257
  GI50: 0.225 µM (active)
MDA-MB-231
  GI50: 0.202 µM (active)
DU-145
  GI50: 0.282 µM (active)
MCF7
  GI50: 0.294 µM (active)
OVCAR-4
  GI50: 0.208 µM (active)
MOLT-4
  GI50: 0.299 µM (active)
A498
  GI50: 0.253 µM (active)
SK-MEL-28
  GI50: 0.23 µM (active)
SK-MEL-2
  GI50: 0.175 µM (active)
Malme-3M
  GI50: 0.169 µM (active)
HCT-15
  GI50: 0.255 µM
EKVX
  GI50: 0.187 µM (active)
MDA-MB-435
  GI50: 0.214 µM (active)
K562
  GI50: 0.259 µM (active)
786-0
  GI50: 0.264 µM (active)
HOP-92
  GI50: 0.194 µM (active)
UACC-62
  GI50: 0.298 µM (active)
RXF 393
  GI50: 0.245 µM (active)
KM12
  GI50: 0.318 µM (active)
SK-MEL-5
  GI50: 0.172 µM (active)
A549
  GI50: 0.199 µM (active)
OVCAR-3
  GI50: 0.276 µM (active)
MDA-N
  GI50: 0.265 µM (active)
NCI-H226
  GI50: 0.335 µM (active)
SK-OV-3
  GI50: 0.21 µM (active)
PC-3
  GI50: 0.266 µM (active)
CCRF-CEM
  GI50: 0.155 µM (active)
COLO 205
  GI50: 0.165 µM (active)
HOP-62
  GI50: 0.232 µM (active)
HL-60
  GI50: 0.31 µM (active)
ACHN
  GI50: 0.211 µM (active)
U-251
  GI50: 0.303 µM (active)
RPMI-8226
  GI50: 0.172 µM (active)
NCI-H522
  GI50: 0.185 µM (active)
SW-620
  GI50: 0.21 µM (active)
SF-268
  GI50: 0.246 µM (active)
TK-10
  GI50: 0.318 µM (active)
IGROV-1
  GI50: 0.229 µM (active)
LOX IMVI
  GI50: 0.237 µM (active)
NCI/ADR-RES
  GI50: 0.337 µM (active)
Hs-578T
  GI50: 0.235 µM (active)

## O=C(O)[C@H](Cc1ccccc1)NCCN1CCC[C@H]1C(=O)O
SF-295
  GI50: > 100 µM (inactive)
OVCAR-8
  GI50: > 100 µM (inactive)
NCI-H23
  GI50: > 100 µM (inactive)
T47D
  GI50: > 100 µM (inactive)
SNB-19
  GI50: > 100 µM (inactive)
MDA-MB-231
  GI50: > 100 µM (inactive)
M14
  GI50: > 100 µM (inactive)
DU-145
  GI50: > 100 µM (inactive)
MCF7
  GI50: > 100 µM (inactive)
OVCAR-4
  GI50: 3.74 µM (inactive)
CAKI-1
  GI50: > 100 µM (inactive)
MOLT-4
  GI50: 99.8 µM (inactive)
A498
  GI50: 42.6 µM (inactive)
SK-MEL-28
  GI50: > 100 µM (inactive)
SK-MEL-2
  GI50: > 100 µM (inactive)
Malme-3M
  GI50: 49.8 µM (inactive)
HCT-15
  GI50: 22.2 µM
MDA-MB-435
  GI50: > 100 µM (inactive)
HT-29
  GI50: 26.2 µM (inactive)
K562
  GI50: 1.53 µM (inactive)
786-0
  GI50: > 100 µM (inactive)
HOP-92
  GI50: 1.91 µM (inactive)
UACC-62
  GI50: 70.8 µM (inactive)
RXF 393
  GI50: > 100 µM (inactive)
KM12
  GI50: > 100 µM (inactive)
SK-MEL-5
  GI50: > 100 µM (inactive)
A549
  GI50: > 100 µM (inactive)
SN12C
  GI50: > 100 µM (inactive)
OVCAR-3
  GI50: > 100 µM (inactive)
MDA-N
  GI50: > 100 µM (inactive)
SK-OV-3
  GI50: > 100 µM (inactive)
PC-3
  GI50: > 100 µM (inactive)
COLO 205
  GI50: 37.6 µM (inactive)
HOP-62
  GI50: > 100 µM (inactive)
HCT-116
  GI50: > 100 µM (inactive)
SF-539
  GI50: > 100 µM (inactive)
U-251
  GI50: > 100 µM (inactive)
RPMI-8226
  GI50: > 100 µM (inactive)
NCI-H522
  GI50: > 100 µM (inactive)
SW-620
  GI50: 80.4 µM (inactive)
NCI-H460
  GI50: 42.1 µM (inactive)
SF-268
  GI50: > 100 µM (inactive)
OVCAR-5
  GI50: > 100 µM (inactive)
NCI/ADR-RES
  GI50: > 100 µM (inactive)
UO-31
  GI50: 32.4 µM (inactive)

## CCC1OC2C(CC=C(C)C)=C3OC(C)(O)C(C)(CC)C(O)C3=C3OC(=O)C=C1C32 (centres undefined)
SF-295
  GI50: 45.8 µM (inactive)
NCI-H23
  GI50: 21.6 µM (inactive)
T47D
  GI50: 29 µM (inactive)
SNB-19
  GI50: 54.6 µM (inactive)
UACC-257
  GI50: 33.9 µM (inactive)
MDA-MB-231
  GI50: 19 µM (inactive)
M14
  GI50: 30.8 µM (inactive)
DU-145
  GI50: 50.5 µM (inactive)
MCF7
  GI50: 31.3 µM (inactive)
OVCAR-4
  GI50: 36.2 µM (inactive)
CAKI-1
  GI50: > 100 µM (inactive)
MOLT-4
  GI50: 24.5 µM (inactive)
A498
  GI50: > 100 µM (inactive)
SK-MEL-28
  GI50: 50.8 µM (inactive)
SK-MEL-2
  GI50: 26.1 µM (inactive)
HCT-15
  GI50: 33 µM
EKVX
  GI50: 35.6 µM (inactive)
HCC 2998
  GI50: 27 µM (inactive)
MDA-MB-435
  GI50: 67 µM (inactive)
K562
  GI50: 10.8 µM (inactive)
BT-549
  GI50: 23 µM (inactive)
786-0
  GI50: 37.2 µM (inactive)
HOP-92
  GI50: 17.3 µM (inactive)
UACC-62
  GI50: 26.7 µM (inactive)
KM12
  GI50: 34.7 µM (inactive)
SK-MEL-5
  GI50: 28.4 µM (inactive)
A549
  GI50: 37.6 µM (inactive)
NCI-H226
  GI50: 55.1 µM (inactive)
SK-OV-3
  GI50: > 100 µM (inactive)
PC-3
  GI50: 68.5 µM (inactive)
CCRF-CEM
  GI50: 33.6 µM (inactive)
COLO 205
  GI50: 29.9 µM (inactive)
HCT-116
  GI50: 26.6 µM (inactive)
SF-539
  GI50: 15.8 µM (inactive)
ACHN
  GI50: 38.3 µM (inactive)
U-251
  GI50: 58.9 µM (inactive)
RPMI-8226
  GI50: 31.6 µM (inactive)
SW-620
  GI50: 39.4 µM (inactive)
NCI-H460
  GI50: 21.4 µM (inactive)
SF-268
  GI50: 27 µM (inactive)
TK-10
  GI50: 70.6 µM (inactive)
OVCAR-5
  GI50: 74.8 µM (inactive)
LOX IMVI
  GI50: 12.4 µM (inactive)
NCI/ADR-RES
  GI50: 42.8 µM (inactive)
UO-31
  GI50: 25.4 µM (inactive)

## CC(=O)Oc1ccc(-c2c(OC(C)=O)c(OC(C)=O)c(-c3ccc(OC(C)=O)c(OC(C)=O)c3)c(OC(C)=O)c2OC(C)=O)cc1
SF-295
  GI50: 6.03 µM (inactive)
OVCAR-8
  GI50: 14.6 µM (inactive)
NCI-H23
  GI50: 19 µM (inactive)
T47D
  GI50: 10.6 µM (inactive)
SNB-19
  GI50: 15.8 µM (inactive)
UACC-257
  GI50: 15.1 µM (inactive)
MDA-MB-231
  GI50: 18.6 µM (inactive)
M14
  GI50: 18.1 µM (inactive)
DU-145
  GI50: 16.3 µM (inactive)
MCF7
  GI50: 23.7 µM (inactive)
OVCAR-4
  GI50: 17.6 µM (inactive)
CAKI-1
  GI50: 21.3 µM (inactive)
MOLT-4
  GI50: 20.2 µM (inactive)
A498
  GI50: 20.1 µM (inactive)
SK-MEL-28
  GI50: 14.8 µM (inactive)
SK-MEL-2
  GI50: 16.1 µM (inactive)
Malme-3M
  GI50: 16.1 µM (inactive)
HCT-15
  GI50: 17.1 µM
EKVX
  GI50: 0.553 µM (active)
MDA-MB-435
  GI50: 16.9 µM (inactive)
HT-29
  GI50: 18.2 µM (inactive)
K562
  GI50: 21.5 µM (inactive)
786-0
  GI50: 16.1 µM (inactive)
UACC-62
  GI50: 17.8 µM (inactive)
RXF 393
  GI50: 18.2 µM (inactive)
KM12
  GI50: 14.4 µM (inactive)
SK-MEL-5
  GI50: 11.7 µM (inactive)
A549
  GI50: 17.8 µM (inactive)
SN12C
  GI50: 18.8 µM (inactive)
OVCAR-3
  GI50: 15.7 µM (inactive)
MDA-N
  GI50: 16.9 µM (inactive)
NCI-H226
  GI50: 17.9 µM (inactive)
SK-OV-3
  GI50: 22.3 µM (inactive)
SR
  GI50: 23.9 µM (inactive)
PC-3
  GI50: 15.9 µM (inactive)
CCRF-CEM
  GI50: 10.7 µM (inactive)
COLO 205
  GI50: 17.7 µM (inactive)
HCT-116
  GI50: 18.8 µM (inactive)
SF-539
  GI50: 18.2 µM (inactive)
HL-60
  GI50: 22.9 µM (inactive)
ACHN
  GI50: 16.4 µM (inactive)
U-251
  GI50: 17.5 µM (inactive)
RPMI-8226
  GI50: 16.3 µM (inactive)
NCI-H522
  GI50: 5.46 µM (inactive)
SW-620
  GI50: 14.9 µM (inactive)
NCI-H460
  GI50: 40.1 µM (inactive)
SF-268
  GI50: 17.7 µM (inactive)
SNB-75
  GI50: 13.6 µM (inactive)
TK-10
  GI50: 15.9 µM (inactive)
IGROV-1
  GI50: 15.5 µM (inactive)
OVCAR-5
  GI50: 12.5 µM (inactive)
LOX IMVI
  GI50: 16.1 µM (inactive)
NCI/ADR-RES
  GI50: 39.7 µM (inactive)
UO-31
  GI50: 15.5 µM (inactive)
